Assay results published in patent US20230277483A1, “COMPOSITIONS AND METHODS TO TREAT INFLAMMATION” (University of Iowa Research Foundation, priority 2022, published 2023).

System: S. oralis (So, ATCC 35037)
Assay: Bacterial proliferation measured by OD600
Assay type: cell-based, Streptococcus oralis
Settings: HCA at 0.1 μM; aerobic culture
Experimental: Sg metabolites promote commensal bacterial proliferation and inhibit periodontopathogenic bacterial proliferation and colonization. Commensal bacteria, Sg, S. sanguinis (Ss, ATCC10556), S. mitis (Sm, ATCC49456) and S. oralis (So, ATCC 35037) were cultured in BHI medium. In addition, pathogenic bacteria, Pg was cultured using BHI and Tf (ATCC43037), and Td (ATCC 35405) were grown in Thioglycollate medium with vitamin K and Hemin in 90% N2, 5% H2, 5% CO2. The Sg metabolites were diluted using DMEM and added to the bacteria with the similar OD600 value. The same amount of DMEM was used as a control. During the exponential growth of bacteria, the OD600 value was measured to determine the proliferation. […] In addition, to determine the function of Sg metabolites on Pg colonization, Pg were inoculated in 24-well plates containing BHI or BHI supplemented with DMEM or Sg metabolites. […]
HCA promotes proliferation of health related bacteria and inhibits proliferation and attachment of periodontopathogenic bacteria. […] The composition of the microbiomes was determined by amplifying the V3 and V4 regions of the 16S rRNA genes. Raw data in FASTQ format were filtered and denoised using DADA2 (Divisive Amplicon Denoising Algorithm) to generate amplicon sequence variants (ASV) or operational taxonomical units (OTUs) that were then analyzed by QIIME2.

## O=C(O)CCCCCO [HCA, 6-hydroxycaproic acid]
  proliferation of S. oralis: improve proliferation
